Assay results reported in patent US20250049926A1, “PHARMACEUTICAL COMPOSITIONS COMPRISING MODIFIED BETACYCLODEXTRINS” (priority 2021, published 2025).

Experiments:
mouse tumor models = experiment: Single agent administration in mouse tumor models; assay type: in vivo
Excerpt: However the compound of formula (I) has low aqueous solubility, leading to the possibility of limited exposure in humans.

Log P of free base = assay type: physicochemical
Experimental: The compound of formula (I) as a free base compound has a quite strong lipophilic behavior (Log P 4.13). […] Taking into account these characteristics, and based on pH requirements for intravenous (IV) solutions which is generally set ≥4.0, solubility studies were carried out to identify solubilizers able to substantially increase the aqueous solubility of the compound of formula (I).

[1] = Formulation stability with SBE-beta-CD (assay and impurities by HPLC, stressed storage); assay type: physicochemical
Experimental: 500 mL batches of each formulation (target pH 4.0 and pH 5.5) are prepared according to the recipe in Table 2 below. The vials used were 50 mL 20 mm Crown, type I, Vial (Gerresheimer), part number 80018303030. The stoppers used were 20 mm S10-F451 Stopper 4432/50 Gray, (Flurotec™ On Plug Only) B2-40 Coating Westar RS part number 19700021.
Each formulation is filtered with a 0.22 μm nylon syringe filter. Vials are filled with 10 mL of formulation, stoppered, sealed and placed at 40° C./75% relative humidity (RH) or at 60° C. (uncontrolled humidity) for up to 14 days. Each vial is placed inverted so that maximum stopper contact with the solution during the stability conditions can be achieved. At each time-point, vials from both conditions and formulations are pulled and analyzed for assay and impurities.
The assay and impurities as measured using the same HPLC method as used for assessing solubility.

[2] = Formulation pH 4.0 (2 mg/mL, SBE-beta-CD 40 mg/mL), 40° C./75% RH, time zero, pH exp 4.1
[3] = Formulation pH 4.0, 40° C./75% RH, Day 1, pH exp 4.1
[4] = Formulation pH 4.0, 40° C./75% RH, Day 3, pH exp 4.0
[5] = Formulation pH 4.0, 40° C./75% RH, Day 7, pH exp 4.1
[6] = Formulation pH 4.0, 40° C./75% RH, Day 14, pH exp 4.1
[7] = Formulation pH 4.0, 60° C., Day 1, pH exp 4.1
[8] = Formulation pH 4.0, 60° C., Day 3, pH exp 4.1
[9] = Formulation pH 4.0, 60° C., Day 7, pH exp 4.1
[10] = Formulation pH 4.0, 60° C., Day 14, pH exp 4.1
[11] = Formulation pH 4.0, 60° C., time zero, pH exp 4.1
[12] = Formulation pH 5.5 (2 mg/mL, SBE-beta-CD 40 mg/mL), 40° C./75% RH, time zero, pH exp 5.6
[13] = Formulation pH 5.5, 40° C./75% RH, Day 1, pH exp 5.6
[14] = Formulation pH 5.5, 40° C./75% RH, Day 3, pH exp 5.6
[15] = Formulation pH 5.5, 40° C./75% RH, Day 7, pH exp 5.7
[16] = Formulation pH 5.5, 40° C./75% RH, Day 14, pH exp 5.6
[17] = Formulation pH 5.5, 60° C., Day 1, pH exp 5.6
[18] = Formulation pH 5.5, 60° C., Day 3, pH exp 5.6
[19] = Formulation pH 5.5, 60° C., Day 7, pH exp 5.7
[20] = Formulation pH 5.5, 60° C., Day 14, pH exp 5.7
[21] = Formulation pH 5.5, 60° C., time zero, pH exp 5.6

COc1cc(N2CCNCC2)ccc1Nc1ncc2c(n1)-n1ccc(C(=O)Nc3c(C)cccc3C)c1CC2 [compound of formula (I)]
tumor response (mouse tumor models): regressions (and cures) | logP (Log P of free base): 4.13 | stability of formulation with SBE-beta-CD ([1]; 60° C. stressed conditions, formulation at pH 5.5 compared to pH 4.0): lower impurities and lower loss of assay | Assay (% of theoretical value of compound of formula (I)) [1, 2]: 96.8% | Total impurities [1, 2]: 1.1 % area | Assay (% of theoretical value of compound of formula (I)) [1, 3]: 98.1% | Total impurities [1, 3]: 1.1 % area | Assay (% of theoretical value of compound of formula (I)) [1, 4]: 98.7% | Total impurities [1, 4]: 1.3 % area | Assay (% of theoretical value of compound of formula (I)) [1, 5]: 103.1% | Total impurities [1, 5]: 1.3 % area | Assay (% of theoretical value of compound of formula (I)) [1, 6]: 97.7% | Total impurities [1, 6]: 1.4 % area | Assay (% of theoretical value of compound of formula (I)) [1, 7]: 97.9% | Total impurities [1, 7]: 1.4 % area | Assay (% of theoretical value of compound of formula (I)) [1, 8]: 98.3% | Total impurities [1, 8]: 2.0 % area | Assay (% of theoretical value of compound of formula (I)) [1, 9]: 97.9% | Total impurities [1, 9]: 3.4 % area | Assay (% of theoretical value of compound of formula (I)) [1, 10]: 87.0% | Total impurities [1, 10]: 4.7 % area | Assay (% of theoretical value of compound of formula (I)) [1, 11]: 96.8% | Total impurities [1, 11]: 1.1 % area | Assay (% of theoretical value of compound of formula (I)) [1, 12]: 99.0% | Total impurities [1, 12]: 1.1 % area | Assay (% of theoretical value of compound of formula (I)) [1, 13]: 97.9% | Total impurities [1, 13]: 1.2 % area | Assay (% of theoretical value of compound of formula (I)) [1, 14]: 100.6% | Total impurities [1, 14]: 1.3 % area | Assay (% of theoretical value of compound of formula (I)) [1, 15]: 100.1% | Total impurities [1, 15]: 1.2 % area | Assay (% of theoretical value of compound of formula (I)) [1, 16]: 94.7% | Total impurities [1, 16]: 1.3 % area | Assay (% of theoretical value of compound of formula (I)) [1, 17]: 97.9% | Total impurities [1, 17]: 1.3 % area | Assay (% of theoretical value of compound of formula (I)) [1, 18]: 100.6% | Total impurities [1, 18]: 1.5 % area | Assay (% of theoretical value of compound of formula (I)) [1, 19]: 100.1% | Total impurities [1, 19]: 2.0 % area | Assay (% of theoretical value of compound of formula (I)) [1, 20]: 97.7% | Total impurities [1, 20]: 3.0 % area | Assay (% of theoretical value of compound of formula (I)) [1, 21]: 99.0% | Total impurities [1, 21]: 1.1 % area | stability of formulation with SBE-beta-CD ([1]; pH 4.0 versus pH 5.5 at 40° C./75% RH stressed conditions): similar
